Reference: article PMC3237002, “Molecular Conversion of Muscarinic Acetylcholine Receptor M5 to Muscarinic Toxin 7 (MT7)-Binding Protein” (Toxins, 2011)
Positions count from the first letter of the chain named.

Assays:
[1] = target: T1, M5-ELYE receptor construct (Homo sapiens, UniProt P08912, K175E/P179L/Q184Y/V474E); assay: [3H]NMS dissociation rate, M5-ELYE; type: binding
T1 construct: expressed in transfected cells; host or cells: Sf9 cells, recombinant baculovirus
T1 sequence (P08912 1-532 K175E/P179L/Q184Y/V474E): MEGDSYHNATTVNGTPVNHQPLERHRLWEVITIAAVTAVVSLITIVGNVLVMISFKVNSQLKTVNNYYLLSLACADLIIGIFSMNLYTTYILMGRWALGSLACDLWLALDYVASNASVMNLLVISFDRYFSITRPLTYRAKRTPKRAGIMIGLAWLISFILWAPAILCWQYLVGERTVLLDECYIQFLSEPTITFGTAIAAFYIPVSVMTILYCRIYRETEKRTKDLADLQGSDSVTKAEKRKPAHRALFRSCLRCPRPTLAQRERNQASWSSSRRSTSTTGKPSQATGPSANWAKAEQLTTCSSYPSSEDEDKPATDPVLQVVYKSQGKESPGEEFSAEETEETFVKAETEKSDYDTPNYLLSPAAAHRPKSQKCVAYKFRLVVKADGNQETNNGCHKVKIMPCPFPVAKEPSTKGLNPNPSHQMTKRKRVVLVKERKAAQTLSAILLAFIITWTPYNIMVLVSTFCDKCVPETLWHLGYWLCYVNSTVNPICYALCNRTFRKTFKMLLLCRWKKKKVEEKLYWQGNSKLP
Method: (§1) The Infected cells from monolayer culture were harvested in phosphate-buffered saline solution, centrifuged 700× g and stored as pellets at −70 °C until use. For binding experiments the cells were resuspended in binding buffer (100 mM NaCl, 20 mM HEPES, 10 mM MgCl2, 1 mM EDTA, pH adjusted to 7.4) and homogenized with an Ultra-Turrax homogenizer. […] Atropine (10 μM) was used to determine nonspecific binding. […] Following this, dissociation was started by addition of 10 μM atropine with or without MT7. Aliquots were removed at regular intervals from 0 to 100 min. In testing the reversibility of MT7 binding, cell homogenates were first incubated with toxin in test tubes for 45 min, thereafter centrifuged 12,000 × g for 30 min and then resuspended in fresh buffer. […] All reactions were terminated by rapid filtration through prewashed GF/B filters followed by five washes with cold buffer containing 180 mM NaCl, 25 mM MgCl2, and 20 mM HEPES, pH 7.4, in a microplate harvester. Radioactivity on filters was determined in a TopCount microplate scintillation counter (PerkinElmer, Waltham, MA).

[2] = target: T2, M5-ELY receptor construct (Homo sapiens, UniProt P08912, K175E/P179L/Q184Y); assay: [3H]NMS dissociation rate, M5-ELY; type: binding
T2 construct: expressed in transfected cells; host or cells: Sf9 cells, recombinant baculovirus
T2 sequence (P08912 1-532 K175E/P179L/Q184Y): T1 sequence (P08912 1-532 K175E/P179L/Q184Y/V474E) with E474V
Method: as §1

## C[N+]1(C)[C@@H]2CC(OC(=O)[C@H](CO)c3ccccc3)C[C@H]1[C@@H]1O[C@@H]12 (some centres unmarked) [[^3H]NMS, [^3H]-N-methylscopolamine]
[1]
  [3H]NMS dissociation rate, control: 0.147 min⁻¹
[2]
  [3H]NMS dissociation rate, control: 0.113 min⁻¹
